15 molecules from ChEMBL document CHEMBL1138130, “Synthesis and antibacterial activity of 3-O-acyl-6-O-carbamoyl erythromycin A derivatives” (2006) can be followed below.

Values after ≈ are worked out from the molar mass of the structure shown.

Format in all cases: functional
In test [1] the test system is Streptococcus pneumoniae. Briefly: Antibacterial activity against Streptococcus pneumoniae OC9132.
For the next test, the system named is Staphylococcus aureus. Put plainly: Antibacterial activity against Staphylococcus aureus OC4172.
Test [2] has as its system Streptococcus pneumoniae. Put plainly: Antibacterial activity against Mef(A) efflux pump containing Streptococcus pneumoniae OC4438.
Test [3] concerns Streptococcus pneumoniae. Briefly: Antibacterial activity against erm(B) ribosomal methylase gene containing Streptococcus pneumoniae OC4051.
A further test deals with Haemophilus influenzae. Briefly: Antibacterial activity against Haemophilus influenzae OC4882.

Turning to `CC[C@H]1OC(=O)[C@H](C)[C@@H](OC(=O)N(CC)CC)[C@H](C)[C@@H](O[C@@H]2O[C@H](C)C[C@H](N(C)C)[C@H]2O)[C@](C)(OC(=O)NC/C=C/c2cnc3ccccc3c2)C[C@@H](C)C(=O)[C@H](C)[C@H]2NC(=O)O[C@@]21C`, the MIC against Streptococcus pneumoniae [1] amounted to 0.06 µg/mL (≈ 0.0659 µM); against Staphylococcus aureus, 0.5 µg/mL (≈ 0.549 µM); against Streptococcus pneumoniae [2] it was 0.06 µg/mL (≈ 0.0659 µM); against Streptococcus pneumoniae [3], 0.12 µg/mL (≈ 0.132 µM); in the test on Haemophilus influenzae, 4 µg/mL (≈ 4.4 µM).
As for `CC[C@H]1OC(=O)[C@H](C)[C@@H](OC(=O)N(CC)CC)[C@H](C)[C@@H](O[C@@H]2O[C@H](C)C[C@H](N(C)C)[C@H]2O)[C@](C)(OC(=O)NC/C=C/c2ccc(-c3cccnn3)cc2)C[C@@H](C)C(=O)[C@H](C)[C@H]2NC(=O)O[C@@]21C`, the MIC against Streptococcus pneumoniae [1] turned out to be 0.06 µg/mL (≈ 0.064 µM); with Staphylococcus aureus, 0.5 µg/mL (≈ 0.534 µM); against Streptococcus pneumoniae [2], 0.12 µg/mL (≈ 0.128 µM); in the test with Streptococcus pneumoniae [3], 0.25 µg/mL (≈ 0.267 µM); against Haemophilus influenzae, 4 µg/mL (≈ 4.27 µM).
Turning to `CC[C@H]1OC(=O)[C@H](C)[C@@H](OC(=O)N(CC)CC)[C@H](C)[C@@H](O[C@@H]2O[C@H](C)C[C@H](N(C)C)[C@H]2O)[C@](C)(OC(=O)NC/C=C/c2ccc(-n3cccn3)cc2)C[C@@H](C)C(=O)[C@H](C)[C@H]2NC(=O)O[C@@]21C`, the MIC stood at 0.12 µg/mL (≈ 0.13 µM) against Streptococcus pneumoniae [1]; 1 µg/mL (≈ 1.08 µM) against Staphylococcus aureus; 0.12 µg/mL (≈ 0.13 µM) with Streptococcus pneumoniae [2]; 0.5 µg/mL (≈ 0.54 µM) against Streptococcus pneumoniae [3]; 4 µg/mL (≈ 4.32 µM) in the test on Haemophilus influenzae.
For `CC[C@H]1OC(=O)[C@H](C)[C@@H](OC(=O)CC2CC2)[C@H](C)[C@@H](O[C@@H]2O[C@H](C)C[C@H](N(C)C)[C@H]2O)[C@](C)(OC(=O)NC/C=C/c2ccc(-c3ncccn3)cc2)C[C@@H](C)C(=O)[C@H](C)[C@H]2NC(=O)O[C@@]21C`, the MIC came out at 0.06 µg/mL (≈ 0.0652 µM) with Streptococcus pneumoniae [1]; 1 µg/mL (≈ 1.09 µM) in the test on Staphylococcus aureus; 0.12 µg/mL (≈ 0.13 µM) against Streptococcus pneumoniae [2]; 0.12 µg/mL (≈ 0.13 µM) against Streptococcus pneumoniae [3]; 16 µg/mL (≈ 17.4 µM) with Haemophilus influenzae.
Consider `CC[C@H]1OC(=O)[C@H](C)[C@@H](OC(=O)Cc2ccccn2)[C@H](C)[C@@H](O[C@@H]2O[C@H](C)C[C@H](N(C)C)[C@H]2O)[C@](C)(OC(=O)NC/C=C/c2ccc(-c3ncccn3)cc2)C[C@@H](C)C(=O)[C@H](C)[C@H]2NC(=O)O[C@@]21C`, for which the MIC came out at 0.03 µg/mL (≈ 0.0313 µM) against Streptococcus pneumoniae [1]; 0.25 µg/mL (≈ 0.261 µM) in the test on Staphylococcus aureus; 0.12 µg/mL (≈ 0.125 µM) against Streptococcus pneumoniae [2]; 0.12 µg/mL (≈ 0.125 µM) in the test with Streptococcus pneumoniae [3]; 4 µg/mL (≈ 4.18 µM) against Haemophilus influenzae.
Regarding `CC[C@H]1OC(=O)[C@H](C)[C@@H](OC(=O)Cc2cccnc2)[C@H](C)[C@@H](O[C@@H]2O[C@H](C)C[C@H](N(C)C)[C@H]2O)[C@](C)(OC(=O)NC/C=C/c2ccc(-c3ncccn3)cc2)C[C@@H](C)C(=O)[C@H](C)[C@H]2NC(=O)O[C@@]21C`, the MIC against Streptococcus pneumoniae [1] is 0.03 µg/mL (≈ 0.0313 µM); with Staphylococcus aureus, 0.12 µg/mL (≈ 0.125 µM); in the test with Streptococcus pneumoniae [2], 0.06 µg/mL (≈ 0.0627 µM); against Streptococcus pneumoniae [3], 0.12 µg/mL (≈ 0.125 µM); against Haemophilus influenzae, 4 µg/mL (≈ 4.18 µM).
As to `CC[C@H]1OC(=O)[C@H](C)[C@@H](OC(=O)Nc2ccc(F)cc2)[C@H](C)[C@@H](O[C@@H]2O[C@H](C)C[C@H](N(C)C)[C@H]2O)[C@](C)(OC(=O)NC/C=C/c2ccc(-c3ncccn3)cc2)C[C@@H](C)C(=O)[C@H](C)[C@H]2NC(=O)O[C@@]21C`, the MIC stood at 0.12 µg/mL (≈ 0.123 µM) in the test with Streptococcus pneumoniae [1]; 1 µg/mL (≈ 1.03 µM) in the test with Staphylococcus aureus; 0.25 µg/mL (≈ 0.256 µM) against Streptococcus pneumoniae [2]; 2 µg/mL (≈ 2.05 µM) in the test with Streptococcus pneumoniae [3]; 16 µg/mL (≈ 16.4 µM) with Haemophilus influenzae.
For the molecule `CC[C@H]1OC(=O)[C@H](C)[C@@H](OC(C)=O)[C@H](C)[C@@H](O[C@@H]2O[C@H](C)C[C@H](N(C)C)[C@H]2O)[C@](C)(OC(=O)NC/C=C/c2ccc(-c3ncccn3)cc2)C[C@@H](C)C(=O)[C@H](C)[C@H]2NC(=O)O[C@@]21C`, the MIC amounted to 0.03 µg/mL (≈ 0.0341 µM) against Streptococcus pneumoniae [1]; 1 µg/mL (≈ 1.14 µM) against Staphylococcus aureus; 0.12 µg/mL (≈ 0.136 µM) with Streptococcus pneumoniae [2]; 0.5 µg/mL (≈ 0.568 µM) in the test with Streptococcus pneumoniae [3]; 16 µg/mL (≈ 18.2 µM) against Haemophilus influenzae.
Regarding `CC[C@H]1OC(=O)[C@H](C)[C@@H](OC(=O)C(C)C)[C@H](C)[C@@H](O[C@@H]2O[C@H](C)C[C@H](N(C)C)[C@H]2O)[C@](C)(OC(=O)NC/C=C/c2ccc(-c3ncccn3)cc2)C[C@@H](C)C(=O)[C@H](C)[C@H]2NC(=O)O[C@@]21C`, the MIC amounted to 0.06 µg/mL (≈ 0.0661 µM) against Streptococcus pneumoniae [1]; 0.5 µg/mL (≈ 0.551 µM) in the test on Staphylococcus aureus; 0.12 µg/mL (≈ 0.132 µM) against Streptococcus pneumoniae [2]; 0.12 µg/mL (≈ 0.132 µM) in the test on Streptococcus pneumoniae [3]; 8 µg/mL (≈ 8.81 µM) with Haemophilus influenzae.
Take `CCC(=O)O[C@H]1[C@H](C)[C@@H](O[C@@H]2O[C@H](C)C[C@H](N(C)C)[C@H]2O)[C@](C)(OC(=O)NC/C=C/c2ccc(-c3ncccn3)cc2)C[C@@H](C)C(=O)[C@H](C)[C@H]2NC(=O)O[C@]2(C)[C@@H](CC)OC(=O)[C@@H]1C`: the MIC with Streptococcus pneumoniae [1] is 0.03 µg/mL (≈ 0.0336 µM); with Staphylococcus aureus, 0.5 µg/mL (≈ 0.559 µM); with Streptococcus pneumoniae [2], 0.12 µg/mL (≈ 0.134 µM); in the test on Streptococcus pneumoniae [3], 0.25 µg/mL (≈ 0.28 µM); against Haemophilus influenzae, 8 µg/mL (≈ 8.95 µM).
Turning to `CC[C@H]1OC(=O)[C@H](C)C(=O)[C@H](C)[C@@H](O[C@@H]2O[C@H](C)C[C@H](N(C)C)[C@H]2O)[C@](C)(OC(=O)NC/C=C/c2ccc(-c3ncccn3)cc2)C[C@@H](C)C(=O)[C@H](C)[C@H]2NC(=O)O[C@@]21C`, the MIC worked out at 0.03 µg/mL (≈ 0.0359 µM) with Streptococcus pneumoniae [1]; 0.12 µg/mL (≈ 0.144 µM) in the test on Staphylococcus aureus; 0.25 µg/mL (≈ 0.299 µM) against Streptococcus pneumoniae [2]; 0.06 µg/mL (≈ 0.0718 µM) against Streptococcus pneumoniae [3]; 4 µg/mL (≈ 4.78 µM) with Haemophilus influenzae.
For `CC[C@H]1OC(=O)[C@H](C)[C@@H](OC(=O)c2cccnc2)[C@H](C)[C@@H](O[C@@H]2O[C@H](C)C[C@H](N(C)C)[C@H]2O)[C@](C)(OC(=O)NC/C=C/c2ccc(-c3ncccn3)cc2)C[C@@H](C)C(=O)[C@H](C)[C@H]2NC(=O)O[C@@]21C`, the MIC is 0.06 µg/mL (≈ 0.0636 µM) against Streptococcus pneumoniae [1]; 0.5 µg/mL (≈ 0.53 µM) in the test on Staphylococcus aureus; 0.25 µg/mL (≈ 0.265 µM) in the test with Streptococcus pneumoniae [2]; 4 µg/mL (≈ 4.24 µM) in the test on Streptococcus pneumoniae [3]; 16 µg/mL (≈ 17 µM) against Haemophilus influenzae.
With `CC[C@H]1OC(=O)[C@H](C)[C@@H](OC(=O)CCc2cccnc2)[C@H](C)[C@@H](O[C@@H]2O[C@H](C)C[C@H](N(C)C)[C@H]2O)[C@](C)(OC(=O)NC/C=C/c2ccc(-c3ncccn3)cc2)C[C@@H](C)C(=O)[C@H](C)[C@H]2NC(=O)O[C@@]21C`, the MIC amounted to 0.03 µg/mL (≈ 0.0309 µM) against Streptococcus pneumoniae [1]; 0.25 µg/mL (≈ 0.257 µM) with Staphylococcus aureus; 0.06 µg/mL (≈ 0.0618 µM) in the test with Streptococcus pneumoniae [2]; 2 µg/mL (≈ 2.06 µM) in the test on Streptococcus pneumoniae [3]; 8 µg/mL (≈ 8.24 µM) against Haemophilus influenzae.
As to `CC[C@H]1OC(=O)[C@H](C)[C@@H](OC(=O)Cc2ccncc2)[C@H](C)[C@@H](O[C@@H]2O[C@H](C)C[C@H](N(C)C)[C@H]2O)[C@](C)(OC(=O)NC/C=C/c2ccc(-c3ncccn3)cc2)C[C@@H](C)C(=O)[C@H](C)[C@H]2NC(=O)O[C@@]21C`, the MIC against Streptococcus pneumoniae [1] was determined as 0.03 µg/mL (≈ 0.0313 µM); against Staphylococcus aureus it was 0.25 µg/mL (≈ 0.261 µM); against Streptococcus pneumoniae [2] it was 0.12 µg/mL (≈ 0.125 µM); against Streptococcus pneumoniae [3], 0.25 µg/mL (≈ 0.261 µM); with Haemophilus influenzae it was 4 µg/mL (≈ 4.18 µM).
For `CC[C@H]1OC(=O)[C@H](C)[C@@H](OC(=O)Nc2ccc(OC)cc2)[C@H](C)[C@@H](O[C@@H]2O[C@H](C)C[C@H](N(C)C)[C@H]2O)[C@](C)(OC(=O)NC/C=C/c2ccc(-c3ncccn3)cc2)C[C@@H](C)C(=O)[C@H](C)[C@H]2NC(=O)O[C@@]21C`, the MIC against Streptococcus pneumoniae [1] was 0.12 µg/mL (≈ 0.122 µM); against Staphylococcus aureus, 1 µg/mL (≈ 1.01 µM); in the test on Streptococcus pneumoniae [2], 0.25 µg/mL (≈ 0.253 µM); with Streptococcus pneumoniae [3], 4 µg/mL (≈ 4.05 µM); against Haemophilus influenzae, 16 µg/mL (≈ 16.2 µM).
